Results published in patent US12077503B2, “Substituted cyclic amides and their use as herbicides” (FMC CORPORATION, priority 2015, dated 2024).

Tests used:
Type in all cases: in vivo
Kochia (Kochia scoparia) [1] = assay: Test A preemergence
Outline: (§1)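 Seeded soil received test chemicals as a preemergence directed spray, and seedlings at one to two leaves, 2–10 cm tall, received them postemergence, in a non-phytotoxic, surfactant-containing solvent mixture. Pots were held in a greenhouse for approximately 10 d, then rated for injury from 0, no effect, to 100, complete control.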

[2] = test system: barnyardgrass (Echinochloa crus-galli); assay: Test A preemergence
Outline: as §1

[3] = test system: giant foxtail (Setaria faberii); assay: Test A preemergence
Outline: as §1

[4] = test system: pigweed (Amaranthus retroflexus); assay: Test A preemergence
[5] = test system: ragweed (common ragweed, Ambrosia elatior); assay: Test A preemergence
Outline: as §1

[6] = test system: ryegrass, Italian (Italian ryegrass, Lolium multiflorum); assay: Test A preemergence
Outline: as §1

[7] = test system: Galium (catchweed bedstraw, Galium aparine); assay: Test A postemergence; conditions: postemergence, 0 to 100 scale (0 no effect, 100 complete control)
Outline: as §1

Kochia (Kochia scoparia) [8] = assay: Test A postemergence; conditions: postemergence, 0 to 100 scale (0 no effect, 100 complete control)
Outline: as §1

[9] = test system: barnyardgrass (Echinochloa crus-galli); assay: Test A postemergence; conditions: postemergence, 0 to 100 scale (0 no effect, 100 complete control)
Outline: as §1

[10] = test system: blackgrass (Alopecurus myosuroides); assay: Test A postemergence; conditions: postemergence, 0 to 100 scale (0 no effect, 100 complete control)
Outline: as §1

corn (Zea mays) = assay: Test A postemergence; conditions: postemergence, 0 to 100 scale (0 no effect, 100 complete control)
Outline: as §1

[11] = test system: giant foxtail (Setaria faberii); assay: Test A postemergence; conditions: postemergence, 0 to 100 scale (0 no effect, 100 complete control)
Outline: as §1

[12] = test system: pigweed (Amaranthus retroflexus); assay: Test A postemergence; conditions: postemergence, 0 to 100 scale (0 no effect, 100 complete control)
Outline: as §1

[13] = test system: ragweed (common ragweed, Ambrosia elatior); assay: Test A postemergence; conditions: postemergence, 0 to 100 scale (0 no effect, 100 complete control)
Outline: as §1

[14] = test system: ryegrass, Italian (Italian ryegrass, Lolium multiflorum); assay: Test A postemergence; conditions: postemergence, 0 to 100 scale (0 no effect, 100 complete control)
Outline: as §1

[15] = test system: wheat (Triticum aestivum); assay: Test A postemergence; conditions: postemergence, 0 to 100 scale (0 no effect, 100 complete control)
Outline: as §1

[16] = test system: barnyardgrass (Echinochloa crus-galli); assay: Test B flooded paddy test; conditions: Flood, 0 to 100 scale where 0 is no effect and 100 is complete control, 13 to 15 d
Outline: (§2)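 Greenhouse paddy pots with 2-leaf stage plants received compound by direct addition to floodwater 3 cm deep, kept at that level. Scored visually at 13–15 d versus controls (0 no effect; 100 complete control).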

[17] = test system: ducksalad (Heteranthera limosa); assay: Test B flooded paddy test; conditions: Flood, 0 to 100 scale where 0 is no effect and 100 is complete control, 13 to 15 d
Outline: as §2

rice (Oryra sativa) = assay: Test B flooded paddy test; conditions: Flood, 0 to 100 scale where 0 is no effect and 100 is complete control, 13 to 15 d
Outline: as §2

[18] = test system: sedge, umbrella (small-flower umbrella sedge, Cyperus difformis); assay: Test B flooded paddy test; conditions: Flood, 0 to 100 scale where 0 is no effect and 100 is complete control, 13 to 15 d
Outline: as §2

[19] = 125 g ai/ha, Preemergence, visual injury after approximately 10 d, 0 to 100 scale where 0 is no effect and 100 is complete control
[20] = 500 g ai/ha, preemergence, 0 to 100 scale, 0 = no effect, 100 = complete control
[21] = 125 g ai/ha, visual rating after approx. 10 d
[22] = 500 g ai/ha, visual injury, approx. 10 d
[23] = 125 g ai/ha, preemergence, visual rating after approx. 10 d, 0 to 100 scale where 0 is no effect and 100 is complete control
[24] = 125 g ai/ha, visual injury after approximately 10 d

SMILES	Plant response rating, Kochia (Kochia (Kochia scoparia) [1]; [19])	Plant response rating, Kochia (Kochia (Kochia scoparia) [1]; [20])	Plant response rating, Barnyardgrass [2, 19]	Plant response rating, Barnyardgrass [2, 20]	Plant response rating, Foxtail, Giant [3, 19]	Plant response rating, Foxtail, Giant [3, 20]	Plant response rating, Pigweed [4, 20]	Plant response rating, Ragweed [5, 20]	Plant response rating, Ryegrass, Italian [6, 20]	Plant response rating, Galium [7, 22]	Plant response rating, Kochia (Kochia (Kochia scoparia) [8]; [22])	Plant response rating, Barnyardgrass [9, 21]	Plant response rating, Barnyardgrass [9, 22]	Plant response rating, Blackgrass [10, 21]	Plant response rating, Blackgrass [10, 22]	Plant response rating, Corn (corn (Zea mays); [22])	Plant response rating, Foxtail, Giant [11, 22]	Plant response rating, Pigweed [12, 22]	Plant response rating, Ragweed [13, 22]	Plant response rating, Ryegrass, Italian [14, 22]	also measured
Cc1ccc(C2CNC(=O)C2C(=O)Nc2ccc(F)cc2F)cc1C(F)(F)F (racemic) [Compound 655]	30	40	90	90	90	90	60	30	60	50	40	70	90	20	30	30	60	0	0	30	Plant response rating, Pigweed [4, 19]: 50; Plant response rating, Ragweed [5, 19]: 0; Plant response rating, Ryegrass, Italian [6, 19]: 40; Plant response rating, Galium [7, 21]: 30; Plant response rating, Kochia (Kochia (Kochia scoparia) [8]; [21]): 30; Plant response rating, Corn (corn (Zea mays); [21]): 0; Plant response rating, Foxtail, Giant [11, 21]: 40; Plant response rating, Pigweed [12, 21]: 0; Plant response rating, Ragweed [13, 21]: 0; Plant response rating, Ryegrass, Italian [14, 21]: 0; Plant response rating, Wheat [15, 21]: 0; Plant response rating, Wheat [15, 22]: 10; Plant response rating, Barnyardgrass ([16]; 250 g ai/ha): 20; Plant response rating, Ducksalad ([17]; 250 g ai/ha): 100; Plant response rating, Rice (rice (Oryra sativa); 250 g ai/ha): 30; Plant response rating, Sedge, Umbrella ([18]; 250 g ai/ha): 0
O=C1NCC(c2cccc(C(F)(F)F)c2)C1C(=O)Nc1ccc(Cl)cc1F (racemic) [Compound 675]	0	0	70	80	70	90	0	0	20	0	0	40	70	0	20	0	80	0	0	0	Plant response rating, Pigweed [4, 19]: 0; Plant response rating, Ragweed [5, 19]: 0; Plant response rating, Ryegrass, Italian [6, 19]: 0; Plant response rating, Galium [7, 21]: 0; Plant response rating, Kochia (Kochia (Kochia scoparia) [8]; [21]): 0; Plant response rating, Corn (corn (Zea mays); [21]): 0; Plant response rating, Foxtail, Giant [11, 21]: 50; Plant response rating, Pigweed [12, 21]: 0; Plant response rating, Ragweed [13, 21]: 0; Plant response rating, Ryegrass, Italian [14, 21]: 0; Plant response rating, Wheat [15, 21]: 0; Plant response rating, Wheat [15, 22]: 0; Plant response rating, Barnyardgrass ([16]; 500 g ai/ha): 60; Plant response rating, Ducksalad ([17]; 500 g ai/ha): 75; Plant response rating, Rice (rice (Oryra sativa); 500 g ai/ha): 15; Plant response rating, Sedge, Umbrella ([18]; 500 g ai/ha): 0
C#Cc1cccc(C2CNC(=O)C2C(=O)Nc2cccc(F)c2F)c1 (racemic) [Compound 677]	20	40	60	90	40	90	0	0	40	40	40	80	90	0	20	40	70	20	30	30	Plant response rating, Pigweed [4, 19]: 0; Plant response rating, Ragweed [5, 19]: 0; Plant response rating, Ryegrass, Italian [6, 19]: 20; Plant response rating, Galium [7, 21]: 0; Plant response rating, Kochia (Kochia (Kochia scoparia) [8]; [21]): 0; Plant response rating, Corn (corn (Zea mays); [21]): 0; Plant response rating, Foxtail, Giant [11, 21]: 20; Plant response rating, Pigweed [12, 21]: 0; Plant response rating, Ragweed [13, 21]: 0; Plant response rating, Ryegrass, Italian [14, 21]: 0; Plant response rating, Wheat [15, 21]: 0; Plant response rating, Wheat [15, 22]: 20; Plant response rating, Barnyardgrass ([16]; 250 g ai/ha): 30; Plant response rating, Ducksalad ([17]; 250 g ai/ha): 100; Plant response rating, Rice (rice (Oryra sativa); 250 g ai/ha): 0; Plant response rating, Sedge, Umbrella ([18]; 250 g ai/ha): 0
Cc1ccc(C2CNC(=O)C2C(=O)Nc2ccc(F)cc2F)cc1C(F)(F)F (racemic) [Compound 680]	0	20	30	90	60	90	0	0	20	20	0	30	60	20	20	20	30	0	0	0	Plant response rating, Pigweed [4, 19]: 0; Plant response rating, Ragweed [5, 19]: 0; Plant response rating, Ryegrass, Italian [6, 19]: 0; Plant response rating, Galium [7, 21]: 0; Plant response rating, Kochia (Kochia (Kochia scoparia) [8]; [21]): 0; Plant response rating, Corn (corn (Zea mays); [21]): 20; Plant response rating, Foxtail, Giant [11, 21]: 0; Plant response rating, Pigweed [12, 21]: 0; Plant response rating, Ragweed [13, 21]: 0; Plant response rating, Ryegrass, Italian [14, 21]: 0; Plant response rating, Wheat [15, 21]: 0; Plant response rating, Wheat [15, 22]: 0; Plant response rating, Barnyardgrass ([16]; 250 g ai/ha): 20; Plant response rating, Ducksalad ([17]; 250 g ai/ha): 30; Plant response rating, Rice (rice (Oryra sativa); 250 g ai/ha): 15; Plant response rating, Sedge, Umbrella ([18]; 250 g ai/ha): 0
O=C1NCC(c2cccc(Br)c2)C1C(=O)Nc1ccccc1F (racemic) [Compound 686]	0	40	90	90	90	90	20	0	20	20	30	90	90	20	40	50	90	20	20	40	Plant response rating, Pigweed [4, 23]: 0; Plant response rating, Ragweed [5, 23]: 0; Plant response rating, Ryegrass, Italian [6, 23]: 0; Plant response rating, Galium [7, 24]: 0; Plant response rating, Kochia (Kochia (Kochia scoparia) [8]; [24]): 0; Plant response rating, Corn (corn (Zea mays); [24]): 0; Plant response rating, Foxtail, Giant [11, 24]: 80; Plant response rating, Pigweed [12, 24]: 0; Plant response rating, Ragweed [13, 24]: 20; Plant response rating, Ryegrass, Italian [14, 24]: 20; Plant response rating, Wheat [15, 24]: 0; Plant response rating, Wheat [15, 22]: 30; Plant response rating, Barnyardgrass ([16]; 250 g ai/ha): 35; Plant response rating, Ducksalad ([17]; 250 g ai/ha): 90; Plant response rating, Rice (rice (Oryra sativa); 250 g ai/ha): 0; Plant response rating, Sedge, Umbrella ([18]; 250 g ai/ha): 0
